We go through four compounds from patent US8962842B2, “2-pyridone antimicrobial compositions” (priority 2010, dated 2015).

Like-named read-outs stand apart in the source and are kept apart here. Some results are limits rather than exact numbers.

For data set [1], the system named is Acinetobacter baumannii, quinolone-resistant strains (Quotient Bioresearch catalogue). Briefly: MIC against pathogens resistant against quinolones (Table 5). It is filed as cell-based.
Data set [2] deals with Bacterial strains injected into thigh muscles. Type of data set: in vivo, mice.
Data set [3] concerns Escherichia coli (6 strains). The data set can be described thus: MIC range, broader panel of Quotient Bioresearch strains (Table 4). It is filed as cell-based. Particulars: for MIC50: read-out: MIC Range Median, Escherichia coli (6 strains).
In data set [4] the test system is Klebsiella pneumonia (4 strains). The data set is described as above. Type of data set: cell-based. Particulars: Klebsiella pneumoniae; for MIC50: read-out: MIC Range Median, Klebsiella pneumonia (4 strains).
In data set [5] the test system is Pseudomonas aeruginosa (12 strains). The description is as above. The settings on record: for MIC50: read-out: MIC Range Median, Pseudomonas aeruginosa (12 strains). It is filed as cell-based.
In data set [6] the test system is Burkholderia cepacia (5 strains). The description is as above. The settings on record: for MIC50: read-out: MIC Range Median, Burkholderia cepacia (5 strains). Type of data set: cell-based.
Data set [7] relates to Haemophilus influenza (5 strains). Described as above. Type of data set: cell-based, Haemophilus influenzae. The settings on record: for MIC50: 16 h, Median of the strain panel.
Data set [8] has as its system Acinetobacter baumannii (12 strains). Described as above. Type of data set: cell-based. The settings on record: for MIC50: read-out: MIC Range Median, Acinetobacter baumannii (12 strains).
Data set [9] in a line: Metabolic stability in liver microsomes +/- S9 fraction (Table 8). It is filed as in vitro ADME. Particulars: 1 μM. As for the experimental part:
Metabolic stability of a select number of examples was tested in liver microsomes+/−addition of S9 fraction as described by Kuhnz, W. and Gieschen, H. (1998), Drug Metab. Dispos., 1120-1127. Test concentration was 1 μM and HPLC/MS-MS was used for detection.

Another data set in a line: physchem. It is filed as physicochemical. Particulars: thermodynamic from solid. As for the experimental part:
The solutions were incubated at room temperature for 24 hours before quantification by HPLC detection. Aqueous solubility was evaluated in simulated gastric fluid (SGF), simulated intestinal fluid (SIF) and phosphate buffer saline (PBS) pH 7.4. Aqueous solubility is expressed in Table 11 as mean solubility in μM.

Data set [10] concerns Staphylococcus aureus (16 strains). Briefly: MIC range, broader panel of Quotient Bioresearch strains (Table 3). The settings on record: for MIC50: read-out: MIC Range Median, Staphylococcus aureus (16 strains).
Data set [11] relates to Enterococcus faecalis (5 strains). The description is as above. The settings on record: for MIC50: read-out: MIC Range Median, Enterococcus faecalis (5 strains).
Data set [12] relates to Enterococcus faecium (3 strains). The data set is described as above. Particulars: for MIC: read-out: MIC Range Low, Enterococcus faecium (3 strains); for MIC50: read-out: MIC Range Median, Enterococcus faecium (3 strains).
The subject of data set [13] is Streptococcus pneumonia (5 strains). The description is as above. The settings on record: Streptococcus pneumoniae; for MIC: read-out: MIC Range Low, Streptococcus pneumonia (5 strains); for MIC50: read-out: MIC Range Median, Streptococcus pneumonia (5 strains).
Data set [14] relates to Streptococcus pyogenes (4 strains). The description is as above. Particulars: for MIC50: read-out: MIC Range Median, Streptococcus pyogenes (4 strains).
For data set [15], the system named is Group C Streptococcus (4 strains). Described as above. Particulars: for MIC50: read-out: MIC Range Median, Group C Streptococcus (4 strains).
The next data set deals with bacterial gyrase (Escherichia coli, UniProt P0AES4+P0AES6). Briefly: Inhibition of topoisomerases activity in vitro, Topogen protocol TG1003 (Table 7). Type of data set: biochemical.
The target in data set [16] is bacterial topoisomerase IV (Escherichia coli, UniProt P0AFI2+P20083). The data set can be described thus: Inhibition of topoisomerases activity in vitro, Topogen protocol TG1007 (Table 7). Type of data set: biochemical.
The mark [17] stands for this setting: read-out: MIC Range High, Escherichia coli (6 strains).
[18] abbreviates: read-out: MIC Range Low, Escherichia coli (6 strains).
The mark [19] stands for this setting: read-out: MIC Range High, Klebsiella pneumonia (4 strains).
Setting [20] is: read-out: MIC Range Low, Klebsiella pneumonia (4 strains).
Where [21] appears, read: read-out: MIC Range High, Pseudomonas aeruginosa (12 strains).
[22] abbreviates: read-out: MIC Range Low, Pseudomonas aeruginosa (12 strains).
Where [23] appears, read: read-out: MIC Range High, Burkholderia cepacia (5 strains).
[24] abbreviates: read-out: MIC Range Low, Burkholderia cepacia (5 strains).
[25] abbreviates: High of the strain panel, read-out: MIC Range High, Haemophilus influenza (5 strains).
Setting [26] is: Low of the strain panel, read-out: MIC Range Low, Haemophilus influenza (5 strains).
Setting [27] is: read-out: MIC Range High, Acinetobacter baumannii (12 strains).
Where [28] appears, read: read-out: MIC Range Low, Acinetobacter baumannii (12 strains).
Setting [29] is: read-out: MIC Range High, Staphylococcus aureus (16 strains).
Setting [30] is: read-out: MIC Range Low, Staphylococcus aureus (16 strains).
Setting [31] is: read-out: MIC Range Low, Enterococcus faecalis (5 strains).
Where [32] appears, read: read-out: MIC Range High, Streptococcus pyogenes (4 strains).
Setting [33] is: read-out: MIC Range Low, Streptococcus pyogenes (4 strains).
Setting [34] is: read-out: MIC Range High, Group C Streptococcus (4 strains).
The mark [35] stands for this setting: read-out: MIC Range Low, Group C Streptococcus (4 strains).

Chain of bacterial topoisomerase IV (P20083 whole entry): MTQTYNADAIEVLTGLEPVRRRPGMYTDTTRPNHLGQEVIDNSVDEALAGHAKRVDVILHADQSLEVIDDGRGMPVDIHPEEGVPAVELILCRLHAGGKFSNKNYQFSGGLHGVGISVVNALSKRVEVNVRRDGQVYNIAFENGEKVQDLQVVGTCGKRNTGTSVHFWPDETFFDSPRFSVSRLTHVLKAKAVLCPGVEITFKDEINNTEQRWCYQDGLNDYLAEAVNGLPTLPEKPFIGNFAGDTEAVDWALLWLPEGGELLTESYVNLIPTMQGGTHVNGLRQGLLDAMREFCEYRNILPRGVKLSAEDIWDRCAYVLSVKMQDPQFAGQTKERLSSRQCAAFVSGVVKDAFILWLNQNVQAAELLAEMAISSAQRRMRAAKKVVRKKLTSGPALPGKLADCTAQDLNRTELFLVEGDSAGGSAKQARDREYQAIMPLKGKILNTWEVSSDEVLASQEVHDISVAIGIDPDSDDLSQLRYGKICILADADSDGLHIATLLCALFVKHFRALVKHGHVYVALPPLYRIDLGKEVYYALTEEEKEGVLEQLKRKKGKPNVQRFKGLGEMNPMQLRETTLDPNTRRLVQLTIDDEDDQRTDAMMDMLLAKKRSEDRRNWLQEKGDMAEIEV
Chain of bacterial topoisomerase IV (P0AFI2 whole entry): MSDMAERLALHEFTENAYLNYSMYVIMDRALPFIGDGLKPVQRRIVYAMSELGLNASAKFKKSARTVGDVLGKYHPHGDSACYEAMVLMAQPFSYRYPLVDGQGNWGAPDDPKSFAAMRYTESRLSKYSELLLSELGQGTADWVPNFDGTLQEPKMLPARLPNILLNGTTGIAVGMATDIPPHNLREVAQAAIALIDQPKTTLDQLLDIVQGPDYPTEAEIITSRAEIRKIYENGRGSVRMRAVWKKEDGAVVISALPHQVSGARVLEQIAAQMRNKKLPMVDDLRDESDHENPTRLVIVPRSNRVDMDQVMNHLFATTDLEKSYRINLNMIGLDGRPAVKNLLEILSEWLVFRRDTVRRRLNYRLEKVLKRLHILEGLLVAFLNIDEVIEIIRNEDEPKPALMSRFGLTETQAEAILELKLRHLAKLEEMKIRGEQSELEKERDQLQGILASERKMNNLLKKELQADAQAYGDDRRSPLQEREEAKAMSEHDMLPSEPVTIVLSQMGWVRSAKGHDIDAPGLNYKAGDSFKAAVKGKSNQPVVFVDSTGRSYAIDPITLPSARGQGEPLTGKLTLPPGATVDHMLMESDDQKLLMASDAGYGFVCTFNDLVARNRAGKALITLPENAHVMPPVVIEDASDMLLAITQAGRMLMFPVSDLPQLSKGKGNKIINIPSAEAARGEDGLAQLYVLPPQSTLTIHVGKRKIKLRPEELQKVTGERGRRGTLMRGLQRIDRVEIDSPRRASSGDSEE
Chain of bacterial gyrase (P0AES4 whole entry, one chain of several): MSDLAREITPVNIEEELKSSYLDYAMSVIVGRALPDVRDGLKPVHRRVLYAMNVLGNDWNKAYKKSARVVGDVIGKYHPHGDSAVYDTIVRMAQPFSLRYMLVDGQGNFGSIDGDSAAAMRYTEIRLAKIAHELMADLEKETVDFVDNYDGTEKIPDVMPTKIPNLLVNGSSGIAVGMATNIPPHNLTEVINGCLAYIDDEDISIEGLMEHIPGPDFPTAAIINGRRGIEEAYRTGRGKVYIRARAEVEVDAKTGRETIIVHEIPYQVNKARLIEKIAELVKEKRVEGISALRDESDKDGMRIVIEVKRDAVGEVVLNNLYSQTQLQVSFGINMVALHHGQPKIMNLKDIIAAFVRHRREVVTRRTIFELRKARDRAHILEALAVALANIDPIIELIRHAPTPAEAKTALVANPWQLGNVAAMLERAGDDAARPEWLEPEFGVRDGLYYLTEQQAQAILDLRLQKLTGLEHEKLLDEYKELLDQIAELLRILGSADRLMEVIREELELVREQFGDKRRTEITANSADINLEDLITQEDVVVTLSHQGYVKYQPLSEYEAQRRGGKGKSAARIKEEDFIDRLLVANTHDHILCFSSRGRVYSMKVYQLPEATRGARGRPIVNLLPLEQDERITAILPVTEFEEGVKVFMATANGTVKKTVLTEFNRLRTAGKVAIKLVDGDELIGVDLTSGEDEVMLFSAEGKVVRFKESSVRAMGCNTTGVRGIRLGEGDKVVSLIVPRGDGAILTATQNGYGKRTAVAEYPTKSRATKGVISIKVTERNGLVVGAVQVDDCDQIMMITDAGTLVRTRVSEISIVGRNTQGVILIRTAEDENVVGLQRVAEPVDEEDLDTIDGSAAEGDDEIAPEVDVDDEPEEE

Turning to `C[C@H]1COc2c(N3CCN(C)CC3)c(F)cc3c(=O)c(C(=O)O)cn1c23` [Levofloxacin, reference compound], in data set [1] (strain GN54, Acinetobacter baumannii levofloxacin-resistant clinical isolate, read-out: MIC), the MIC was at least 16 µg/mL.
`CN[C@H](CC(C)C)C(=O)N[C@H]1C(=O)N[C@@H](CC(N)=O)C(=O)N[C@H]2C(=O)N[C@H]3C(=O)N[C@H](C(=O)N[C@H](C(=O)O)c4cc(O)cc(O)c4-c4cc3ccc4O)[C@H](O)c3ccc(c(Cl)c3)Oc3cc2cc(c3O[C@@H]2O[C@H](CO)[C@@H](O)[C@H](O)[C@H]2O[C@H]2C[C@](C)(N)[C@H](O)[C@H](C)O2)Oc2ccc(cc2Cl)[C@H]1O` [vancomycin]: in data set [2] (MRSA ATCC 43300, mouse thigh, 25 mg/kg i.v. once), the “Log reduction (LgR) from vehicle control (CFU/g)” value was determined as 2.71.
For orientation: solubility means the concentration that dissolves in the medium under given conditions. High values mean much dissolved substance, low ones little dissolved substance. In the case of `Cc1c(-c2ccc(O)cc2)ccn2c(=O)c(C(=O)[O-])cc(C3CC3)c12.[K+]` [Example 46 K salt, potassium 1-cyclopropyl-8-(4-hydroxy-phenyl)-9-methyl-4-oxo-4H-quinolizine-3-carboxylate], the MIC in [3] (setting [17]) is 32 µg/mL; in data set [3] (setting [18]) it was at most 0.015 µg/mL; in [4] (setting [19]), above 32 µg/mL; in data set [4] (setting [20]) it was 0.06 µg/mL; in data set [5] (setting [21]), above 32 µg/mL; in data set [5] (setting [22]), 0.25 µg/mL. The MIC in [6] (setting [23]) was 0.12 µg/mL; in data set [6] (setting [24]), 0.06 µg/mL; in [7] (setting [25]), at most 0.015 µg/mL; in data set [7] (setting [26]), at most 0.015 µg/mL; in data set [8] (setting [27]), 16 µg/mL; in [8] (setting [28]), 0.03 µg/mL. Also, the MIC is 2 µg/mL in data set [1] (Acinetobacter baumannii, GN54); 0.12 µg/mL in data set [10] (setting [29]); at most 0.015 µg/mL in data set [10] (setting [30]); at most 0.015 µg/mL in [11] (setting [31]); 0.12 µg/mL in [12]; 0.06 µg/mL in [13]. Further, the MIC in [14] (setting [32]) was found to be 0.12 µg/mL; in [14] (setting [33]) it was 0.03 µg/mL; in data set [15] (setting [34]) it was 0.06 µg/mL; in [15] (setting [35]), 0.03 µg/mL. For the same compound, the MIC50 in [3] was 12 µg/mL; in [4] it was 18 µg/mL; in data set [5] it was 4 µg/mL; in [6], 0.12 µg/mL; in [7], at most 0.015 µg/mL; in data set [8] it was 4 µg/mL. Also, the MIC50 in data set [10] came out at 0.06 µg/mL; in data set [11] it was 0.03 µg/mL; in [12], 0.5 µg/mL; in data set [13], 0.06 µg/mL; in [14] it was 0.06 µg/mL; in data set [15] it was 0.045 µg/mL. Also, the “Mean Parent Remaining” value in data set [9] (Liver microsomes + S9, human) was 97%; in [9] (Liver microsomes + S9, mouse) it was 92%; in data set [9] (Liver microsomes, human), 86%; in data set [9] (Liver microsomes, mouse) it was 81%. Besides, the “Log reduction (LgR) from vehicle control (CFU/g)” value is given as 0.37 in data set [2] (E. coli ATCC 25922, mouse thigh, 30 mg/kg TDS p.o.) and 3.76 in data set [2] (MRSA ATCC 43300, mouse thigh, 30 mg/kg TDS p.o.). In addition, the solubility at 24 h in the data set “physchem” (fassgf or other biorelevant) was 153 µM; in “physchem” (pH 7.4, aqueous buffer) it was 44 µM; in “physchem” (simulated gastric fluid), 7 µM.
What is called IC50 is the concentration needed to halve the response being measured. A high value points to weaker potency. `Cc1c(-c2ccc(N)c(F)c2)ccn2c(=O)c(C(=O)[O-])cc(C3CC3)c12.[K+]` [Example 2 K salt, potassium 8-(4-amino-3-fluoro-phenyl)-1-cyclopropyl-9-methyl-4-oxo-4H-quinolizine-3-carboxylate]: the MIC in [3] (setting [17]) was 16 µg/mL; in [3] (setting [18]), at most 0.015 µg/mL; in [4] (setting [19]), 16 µg/mL; in data set [4] (setting [20]) it was 0.12 µg/mL; in data set [5] (setting [21]), 16 µg/mL; in [5] (setting [22]) it was 0.5 µg/mL. Further, the MIC in data set [6] (setting [23]) was 0.25 µg/mL; in data set [6] (setting [24]), 0.06 µg/mL; in data set [7] (setting [25]) it was at most 0.015 µg/mL; in data set [7] (setting [26]) it was at most 0.015 µg/mL; in data set [8] (setting [27]) it was 16 µg/mL; in [8] (setting [28]) it was 0.06 µg/mL. Moreover, the MIC in [1] (Acinetobacter baumannii, GN54) is 2 µg/mL; in data set [10] (setting [29]), 0.25 µg/mL; in [10] (setting [30]), at most 0.015 µg/mL; in data set [11] (read-out: MIC Range High, Enterococcus faecalis (5 strains)), 1 µg/mL; in [11] (setting [31]), at most 0.015 µg/mL; in [12] it was 0.12 µg/mL. Further, the MIC in [13] came to 0.06 µg/mL; in [14] (setting [32]), 0.12 µg/mL; in data set [14] (setting [33]), 0.06 µg/mL; in data set [15] (setting [34]), 0.12 µg/mL; in data set [15] (setting [35]) it was 0.03 µg/mL. Moreover, the MIC50 was 16 µg/mL in data set [3]; 10 µg/mL in data set [4]; 4 µg/mL in [5]; 0.12 µg/mL in [6]; at most 0.015 µg/mL in [7]; 6 µg/mL in [8]. Further, the MIC50 stood at 0.06 µg/mL in data set [10]; 0.03 µg/mL in data set [11]; 0.5 µg/mL in data set [12]; 0.12 µg/mL in data set [13]; 0.09 µg/mL in [14]; 0.06 µg/mL in [15]. Besides, the concentration for half-maximal inhibition (IC50) against bacterial gyrase is at most 1.42 µM; in data set [16] it was 4.43 µM. Further, the “Mean Parent Remaining” value is listed as 95% in data set [9] (Liver microsomes + S9, human); 58% in data set [9] (Liver microsomes + S9, mouse); 90% in data set [9] (Liver microsomes, human); 53% in data set [9] (Liver microsomes, mouse). Besides, the solubility at 24 h in the data set “physchem” (fassgf or other biorelevant) is 171 µM; in the data set “physchem” (pH 7.4, aqueous buffer) it was 28 µM; in “physchem” (simulated gastric fluid) it was 21 µM.
